Numbers after ± are expanded uncertainties.
Tests used:
[1] = 293.15 K; 101.33 kPa; Liquid
[2] = Boiling temperature at pressure P; details: 100 kPa; Liquid; Ebulliometric method (Recirculating still)
[3] = refractive index (Na D-line) (dimensionless); details: 293.15 K; 101.33 kPa; Liquid; Standard Abbe refractometry

OCCO [1,2-ethanediol]
mass density [1]: 1113.6 ± 5.1 kg/m3
Boiling temperature at pressure P [2]: 197.48 ± 0.2 °C
refractive index [3]: 1.4328 ± 0.0008

CCC(C)CO (centres undefined) [2-methyl-1-butanol]
mass density [1]: 817.8 ± 5 kg/m3
Boiling temperature at pressure P [2]: 128.40 ± 0.2 °C
refractive index [3]: 1.4095 ± 0.0007

CC(C)CCO [3-methylbutan-1-ol]
mass density [1]: 808.1 ± 5 kg/m3
Boiling temperature at pressure P [2]: 131.30 ± 0.2 °C
refractive index [3]: 1.4054 ± 0.0007

— the NIST ThermoML archive (doi:10.1021/je030216r)
